Source: PubChem BioAssay AID1963448 (Molecular Pharmacology Branch, DTP, NCI, 2024)
Values joined by “and” are separate entries in the source; they are usually repeats but may differ in a detail not shown here. Equal entries are not always repeated.

Test system: 616215-338-R-J1-PDC complex spheroid growth, % test/control
Experiment: Anticancer human tumor 616215-338-R-J1-PDC patient-derived colon adenocarcinoma cell line growth inhibition [Asc]
Settings: for viability, T/C: stronger effect = lower value
Method in brief: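 Tumor cells were grown as multicellular spheroids with stromal HUVEC and mesenchymal stem cells and treated singly or in combination. Concentrations fell in half-log steps from the clinical Cmax, or from 10 microM where none was known.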

[1] = curve of first compound, second compound 0.03 µM
[2] = curve of first compound, second compound 0.0949 µM
[3] = curve of first compound, second compound 0.3 µM
[4] = curve of first compound, second compound 0.949 µM
[5] = curve of first compound, second compound 3 µM
[6] = second compound 0.03 µM, first compound 0.00316 µM
[7] = second compound 0.03 µM, first compound 0.01 µM
[8] = second compound 0.03 µM, first compound 0.0316 µM
[9] = second compound 0.03 µM, first compound 0.1 µM
[10] = second compound 0.0949 µM, first compound 0.00316 µM
[11] = second compound 0.0949 µM, first compound 0.01 µM
[12] = second compound 0.0949 µM, first compound 0.0316 µM
[13] = second compound 0.0949 µM, first compound 0.1 µM
[14] = second compound 0.3 µM, first compound 0.00316 µM
[15] = second compound 0.3 µM, first compound 0.01 µM
[16] = second compound 0.3 µM, first compound 0.0316 µM
[17] = second compound 0.3 µM, first compound 0.1 µM
[18] = second compound 0.949 µM, first compound 0.00316 µM
[19] = second compound 0.949 µM, first compound 0.01 µM
[20] = second compound 0.949 µM, first compound 0.0316 µM
[21] = second compound 0.949 µM, first compound 0.1 µM
[22] = second compound 3 µM, first compound 0.00316 µM
[23] = second compound 3 µM, first compound 0.01 µM
[24] = second compound 3 µM, first compound 0.0316 µM
[25] = second compound 3 µM, first compound 0.1 µM
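Also: spheroids exposed to agents for seven days before readout.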
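For viability, T/C in this document: 100% = DMSO vehicle control viability.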

`O=C(c1ccc(F)c(F)c1Nc1ccc(I)cc1F)N1CC(O)([C@@H]2CCCCN2)C1` + CCN1C(C(=O)NC23CCC(C(=O)O)(CC2)CC3)C(c2cccc(Cl)c2F)C2(C(=O)Nc3cc(Cl)ccc32)C12CCCCC2 showed an IC50 [1] of 70 nM, an IC50 [2] of 52.9 nM and an IC50 [3] of 16.4 nM. It also gave an IC50 [4] of 5.81 nM, an IC50 [5] of less than 3.16 nM and a viability, T/C [6] of 89.9%. For the same molecule, the viability, T/C [7] was 88.6%, the viability, T/C [8] was 90.1% and the viability, T/C [9] was 32.3%. The viability, T/C (second compound 0.03 µM, first compound 0.316 µM) was 0.26%, the viability, T/C (second compound 0.03 µM, first compound 1 µM) was 0.38% and the viability, T/C [10] was 93.8%. The viability, T/C [11] was 93.6%, the viability, T/C [12] was 74.5% and the viability, T/C [13] was 19.6%. It also gave a viability, T/C (second compound 0.0949 µM, first compound 0.316 µM) of 0.23%, a viability, T/C (second compound 0.0949 µM, first compound 1 µM) of 0.37% and a viability, T/C [14] of 59.8%. The viability, T/C [15] was 57.7%, the viability, T/C [16] was 38.8% and the viability, T/C [17] was 3%. It also gave a viability, T/C (second compound 0.3 µM, first compound 0.316 µM) of 1.18%, a viability, T/C (second compound 0.3 µM, first compound 1 µM) of 1.93% and a viability, T/C [18] of 55.5%. It also gave a viability, T/C [19] of 44.2%, a viability, T/C [20] of 23.3% and a viability, T/C [21] of 2.29%. For the same molecule, the viability, T/C (second compound 0.949 µM, first compound 0.316 µM) was 1.21%, the viability, T/C (second compound 0.949 µM, first compound 1 µM) was 3.73% and the viability, T/C [22] was 40.3%. For the same molecule, the viability, T/C [23] was 36%, the viability, T/C [24] was 3.79% and the viability, T/C [25] was 0.28%. For the same molecule, the viability, T/C (second compound 3 µM, first compound 0.316 µM) was 0.56% and the viability, T/C (second compound 3 µM, first compound 1 µM) was 2.69%.

In the case of `Cn1ncnc1[C@H]1c2n[nH]c(=O)c3cc(F)cc(c23)N[C@@H]1c1ccc(F)cc1` + CCN1C(C(=O)NC23CCC(C(=O)O)(CC2)CC3)C(c2cccc(Cl)c2F)C2(C(=O)Nc3cc(Cl)ccc32)C12CCCCC2, the IC50 [1] is reported as greater than 100 nM, the IC50 [2] is reported as greater than 100 nM and the IC50 [3] is reported as greater than 100 nM. It also gave an IC50 [4] greater than 100 nM, an IC50 [5] of 3.14 nM and a viability, T/C (second compound 0.03 µM, first compound 0.000316 µM) of 107%. It also gave a viability, T/C (second compound 0.03 µM, first compound 0.001 µM) of 103%, a viability, T/C [6] of 97.8% and a viability, T/C [7] of 105%. For the same molecule, the viability, T/C [8] was 92.3%, the viability, T/C [9] was 85.5% and the viability, T/C (second compound 0.0949 µM, first compound 0.000316 µM) was 99.2%. For the same molecule, the viability, T/C (second compound 0.0949 µM, first compound 0.001 µM) was 95.5%, the viability, T/C [10] was 89% and the viability, T/C [11] was 85%. It also gave a viability, T/C [12] of 81.5%, a viability, T/C [13] of 75.6% and a viability, T/C (second compound 0.3 µM, first compound 0.000316 µM) of 69.6%. The viability, T/C (second compound 0.3 µM, first compound 0.001 µM) was 70.9%, the viability, T/C [14] was 67.6% and the viability, T/C [15] was 56.7%. For the same molecule, the viability, T/C [16] was 58.9%, the viability, T/C [17] was 61.8% and the viability, T/C (second compound 0.949 µM, first compound 0.000316 µM) was 65.3%. It also gave a viability, T/C (second compound 0.949 µM, first compound 0.001 µM) of 66.5%, a viability, T/C [18] of 67.4% and a viability, T/C [19] of 56.8%. It also gave a viability, T/C [20] of 57.2%, a viability, T/C [21] of 61.3% and a viability, T/C (second compound 3 µM, first compound 0.000316 µM) of 50.2%. The viability, T/C (second compound 3 µM, first compound 0.001 µM) was 55.5%, the viability, T/C [22] was 49.9% and the viability, T/C [23] was 46.1%. It also gave a viability, T/C [24] of 47.5% and a viability, T/C [25] of 48.3%.

In the case of `CCN1C(C(=O)NC23CCC(C(=O)O)(CC2)CC3)C(c2cccc(Cl)c2F)C2(C(=O)Nc3cc(Cl)ccc32)C12CCCCC2` (stereo not drawn), the viability, T/C (compound 0.00949 µM) is reported as 106% and 100%, the viability, T/C (compound 0.03 µM) is reported as 96.6% [middle of 15 runs] and the IC50 (curve of compound) is reported as 965 nM and > 3000 nM.

In the case of `Cc1nc(N2CCC3(CC2)COC(C)C3N)c(CO)nc1Sc1ccnc(N)c1Cl` (stereo not drawn) + Cc1c(S(C)(=O)=O)c(-c2cc(F)cc(N3CCN(c4ccc(NS(=O)(=O)c5ccc(NC(CCN6CCC(C(=O)OCCCP(=O)(O)O)CC6)CSc6ccccc6)c(S(=O)(=O)C(F)(F)F)c5)cc4)CC3)c2)c(-c2ccc(Cl)cc2)n1C(C)C, the IC50 (curve of first compound, second compound 0.1 µM) is reported as greater than 3000 nM, the IC50 (curve of first compound, second compound 0.316 µM) is reported as greater than 3000 nM and the IC50 (curve of first compound, second compound 1 µM) is reported as greater than 3000 nM. For the same molecule, the IC50 (curve of first compound, second compound 3.16 µM) was less than 9.49 nM, the IC50 (curve of first compound, second compound 10 µM) was less than 9.49 nM and the viability, T/C (second compound 0.1 µM, first compound 0.00949 µM) was 97.8%. It also gave a viability, T/C (second compound 0.1 µM, first compound 0.03 µM) of 102%, a viability, T/C (second compound 0.1 µM, first compound 0.0949 µM) of 100% and a viability, T/C (second compound 0.1 µM, first compound 0.3 µM) of 95.9%. For the same molecule, the viability, T/C (second compound 0.1 µM, first compound 0.949 µM) was 84.5%, the viability, T/C (second compound 0.1 µM, first compound 3 µM) was 76.7% and the viability, T/C (second compound 0.316 µM, first compound 0.00949 µM) was 96.7%. For the same molecule, the viability, T/C (second compound 0.316 µM, first compound 0.03 µM) was 92.8%, the viability, T/C (second compound 0.316 µM, first compound 0.0949 µM) was 94.5% and the viability, T/C (second compound 0.316 µM, first compound 0.3 µM) was 94.9%. The viability, T/C (second compound 0.316 µM, first compound 0.949 µM) was 76.6%, the viability, T/C (second compound 0.316 µM, first compound 3 µM) was 71.3% and the viability, T/C (second compound 1 µM, first compound 0.00949 µM) was 68%. The viability, T/C (second compound 1 µM, first compound 0.03 µM) was 67.8%, the viability, T/C (second compound 1 µM, first compound 0.0949 µM) was 68.9% and the viability, T/C (second compound 1 µM, first compound 0.3 µM) was 66.7%. The viability, T/C (second compound 1 µM, first compound 0.949 µM) was 61.7%, the viability, T/C (second compound 1 µM, first compound 3 µM) was 55.6% and the viability, T/C (second compound 3.16 µM, first compound 0.00949 µM) was 38.2%. For the same molecule, the viability, T/C (second compound 3.16 µM, first compound 0.03 µM) was 38.4%, the viability, T/C (second compound 3.16 µM, first compound 0.0949 µM) was 34.2% and the viability, T/C (second compound 3.16 µM, first compound 0.3 µM) was 36.8%. For the same molecule, the viability, T/C (second compound 3.16 µM, first compound 0.949 µM) was 25.9%, the viability, T/C (second compound 3.16 µM, first compound 3 µM) was 21.9% and the viability, T/C (second compound 10 µM, first compound 0.00949 µM) was 29.4%. It also gave a viability, T/C (second compound 10 µM, first compound 0.03 µM) of 25.6%, a viability, T/C (second compound 10 µM, first compound 0.0949 µM) of 30.2% and a viability, T/C (second compound 10 µM, first compound 0.3 µM) of 21.1%. It also gave a viability, T/C (second compound 10 µM, first compound 0.949 µM) of 9.17% and a viability, T/C (second compound 10 µM, first compound 3 µM) of 6.63%.
